Experimental data reported in patent US12398154B2, “Azaquinazoline pan-KRas inhibitors” (Mirati Therapeutics, Inc., priority 2020, dated 2025).

Experiments:
KRas G12D = KRas G12D (Homo sapiens, UniProt P01116, G12D); test: biochemical;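 note: TR-FRET displacement binding assay on KRas, read after a one-hour incubation at room temperature, IC50 fitted from percent-of-control values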
Procedure: (§1) The ability of a compound to bind to KRas was measured using a TR-FRET displacement assay. […] After a 60-minute incubation at room temperature, the reaction was measured using a BMG LABTECH CLARIO star Plus via TR-FRET. […] The POC values were fit to a 4-parameter IC50 equation and the IC50 value reported.

KRas G12V = KRas G12V (Homo sapiens, UniProt P01116, G12V); test: biochemical;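 note: KRas binding measured by TR-FRET displacement at room temperature, IC50 fitted from percent of control values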
Procedure: as §1

KRas G12R = KRas G12R (Homo sapiens, UniProt P01116, G12R); test: biochemical;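 note: TR-FRET displacement assay of compound binding to KRas, read after one hour at room temperature, potency from a four-parameter fit of percent-of-control values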
Procedure: as §1

pERK in MKN1 cells = test: Inhibition of KRas phosphorylation of ERK (Cisbio HTRF pERK assay); settings: Homo sapiens, MKN-1, 3 h, read-out: Inhibition (HTRF IC50) of KRas-mediated Phosphorylation of ERK, MKN1
pERK in PSN1 cells = test: as above; settings: Homo sapiens, PSN1, 3 h, read-out: Inhibition (HTRF IC50) of KRas-mediated Phosphorylation of ERK, PSN1
Procedure: (§2) To harvest cells from flask using 0.05% Trypsin/EDTA solution. Add 10 mL of media to stop trypsinizing. Pipette the cells into a conical bottom 50 mL centrifuge tube and centrifuge 5 min×1000 rpm. • 2. Re-suspend the cell pellet in media, take a cell count, and then adjust the cell density using fresh media. • 3. Seed 6,000 cells into cell culture plate with 50 μL media. […] Incubate cell plate overnight in a 37° C., 5% CO2 incubator. • Compound titrations • 1. Use Tecan to complete the compound addition. Compounds start from 10 uM top, 3-fold dilution, and 10 doses. The final DMSO concentration is 0.8%. Dispensed 0.2 uM Trametinib as Min control. • 2. Incubate cell plate for 3 hrs in the incubator. • Detection with cisbio pERK HTRF kit • 1. […] At the end of the compound treatment, flick-off the media. • 3. Add 35 μL of lysis buffer per well using a Multidrop Combi. Then place on a plate agitator shaking at 300 rpm at 4° C. for 40 mins. • 4. Make up the HTRF antibody buffer. For each assay plate, mix 50 μL of d2-conjugate antibody with 950 μL of detection buffer. Similarly, mix 50 μL of Cryptate antibody with 950 μL of detection buffer. Then mix the two diluted antibodies together. • 5. Dispense 3.4 μL the antibody buffer to wells of an empty assay plate. Seal the plate and centrifuge plate 30 sec×1000 rpm. • 6. At the end of the 4° C. lysis, centrifuge the lysate plates 3 mins×1500 rpm. • 7. Use the Bravo to transfer 13.6 μL of lysate from cell culture plate to assay plate.
(§3) Then incubate assay plate for 2 hrs at room temperature. […] At the end of incubation, read plate on the Envision after centrifuging plate 30 sec× • 1000 rpm.

pERK in ASPC1 cells = test: as above; settings: Homo sapiens, ASPC1, read-out: Inhibition (HTRF IC50) of KRas-mediated Phosphorylation of ERK, AsPC-1
pERK in H727 cells = test: as above; settings: Homo sapiens, NCI-H727, read-out: Inhibition (HTRF IC50) of KRas-mediated Phosphorylation of ERK, H727
pERK in A549 cells = test: as above; settings: Homo sapiens, A549, read-out: Inhibition (HTRF IC50) of KRas-mediated Phosphorylation of ERK, A549
Procedure: as §2, §3

pERK in H460 cells = test: as above; settings: Homo sapiens, NCI-H460, read-out: Inhibition (HTRF IC50) of KRas-mediated Phosphorylation of ERK, H460
pERK in HCT116 cells = test: as above; settings: Homo sapiens, HCT-116, read-out: Inhibition (HTRF IC50) of KRas-mediated Phosphorylation of ERK, HCT116
pERK in H358 cells = test: as above; settings: Homo sapiens, NCI-H358, read-out: Inhibition (HTRF IC50) of KRas-mediated Phosphorylation of ERK, H358

KRas G12R, sequence (P01116 1-169 isoform P01116-2 G12R): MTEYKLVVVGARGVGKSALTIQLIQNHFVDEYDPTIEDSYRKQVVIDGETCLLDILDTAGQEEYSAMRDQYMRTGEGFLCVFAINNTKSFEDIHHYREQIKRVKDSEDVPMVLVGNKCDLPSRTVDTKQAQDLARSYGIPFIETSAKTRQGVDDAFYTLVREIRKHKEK
KRas G12V, sequence (P01116 1-169 isoform P01116-2 G12V): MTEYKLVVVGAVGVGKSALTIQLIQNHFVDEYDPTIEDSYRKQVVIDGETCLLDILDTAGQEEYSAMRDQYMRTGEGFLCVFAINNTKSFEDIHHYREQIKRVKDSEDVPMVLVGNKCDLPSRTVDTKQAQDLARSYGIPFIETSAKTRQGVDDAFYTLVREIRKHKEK
KRas G12D, sequence (P01116 1-169 isoform P01116-2 G12D): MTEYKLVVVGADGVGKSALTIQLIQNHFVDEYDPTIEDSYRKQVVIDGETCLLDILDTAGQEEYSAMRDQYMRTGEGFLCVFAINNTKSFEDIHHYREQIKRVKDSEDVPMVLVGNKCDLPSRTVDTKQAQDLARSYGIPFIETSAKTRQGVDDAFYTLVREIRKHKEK

| SMILES | IC50 (KRas G12D) [nM] | IC50 (KRas G12V) [nM] | IC50 (KRas G12R) [nM] | IC50 (pERK in MKN1 cells) [nM] | IC50 (pERK in PSN1 cells) [nM] | IC50 (pERK in ASPC1 cells) [nM] | IC50 (pERK in H727 cells) [nM] | IC50 (pERK in A549 cells) [nM] | IC50 (pERK in H460 cells) [nM] | IC50 (pERK in HCT116 cells) [nM] | IC50 (pERK in H358 cells) [nM] |
| --- | --- | --- | --- | --- | --- | --- | --- | --- | --- | --- | --- |
| Oc1cc(-c2ncc3c(N4CCCC5(CC(O)C5)C4)nc(OC[C@@]45CCCN4C[C@H](F)C5)nc3c2F)c2c(Cl)c(F)ccc2c1 (stereo partly drawn) [Example 425, 6-(7-(8-chloro-7-fluoro-3-hydroxynaphthalen-1-yl)-8-fluoro-2-(((2R,7aS)-2-fluorohexahydro-1H-pyrrolizin-7a-yl)methoxy)pyrido[4,3-d]pyrimidin-4-yl)-6-azaspiro[3.5]nonan-2-ol] | ≤ 2 | ≤ 2 | ≤ 2 | 5 | 921 | 42 | 37 | 54 | 99 | 73 | 12 |
| C#Cc1c(F)ccc2cc(O)cc(-c3ncc4c(N5CCCC6(CC(O)C6)C5)nc(OC[C@@]56CCCN5C[C@H](F)C6)nc4c3F)c12 (stereo partly drawn) [Example 393, 6-(7-(8-ethynyl-7-fluoro-3-hydroxynaphthalen-1-yl)-8-fluoro-2-(((2R,7aS)-2-fluorohexahydro-1H-pyrrolizin-7a-yl)methoxy)pyrido[4,3-d]pyrimidin-4-yl)-6-azaspiro[3.5]nonan-2-ol] | ≤ 2 | ≤ 2 | ≤ 2 | 8 | 449 | 68 | 24 | 133 | 110 | 68 | 20 |
| CCc1c(F)ccc2cc(O)cc(-c3ncc4c(N5CCCn6nc(NC)cc6C5)nc(OC[C@@]56CCCN5C[C@H](F)C6)nc4c3F)c12 [Example 340, 5-ethyl-6-fluoro-4-(8-fluoro-2-(((2R,7aS)-2-fluorohexahydro-1H-pyrrolizin-7a-yl)methoxy)-4-(2-(methylamino)-7,8-dihydro-4II-pyrazolo[1,5-a][1,4]diazepin-5(6H)-yl)pyrido[4,3-d]pyrimidin-7-yl)naphthalen-2-ol] | ≤ 2 | ≤ 2 | ≤ 2 | 26 | ≥ 10000 | 39 | 149 | 353 | 373 | 999 | 55 |
| CN(C)C(=O)c1cc2n(n1)CCCN(c1nc(OC[C@@]34CCCN3C[C@H](F)C4)nc3c(F)c(-c4cc(O)cc5ccc(F)c(Cl)c45)ncc13)C2 [Example 427, 5-(7-(8-chloro-7-fluoro-3-hydroxynaphthalen-1-yl)-8-fluoro-2-(((2R,7aS)-2-fluorohexahydro-1H-pyrrolizin-7a-yl)methoxy)pyrido[4,3-d]pyrimidin-4-yl)-N,N-dimethyl-5,6,7,8-tetrahydro-4H-pyrazolo[1,5-a][1,4]diazepine-2-carboxamide] | ≤ 2 | ≤ 2 | ≤ 2 | 84 | 7680 | 32 | 59 | 379 | 878 | 916 | 52 |
| CCc1c(F)ccc2cc(O)cc(-c3ncc4c(N5CCC[C@@](C)(O)C5)nc(OC[C@]56CCCN5[C@@H](COC(=O)N(C)C)CC6)nc4c3F)c12 [Example 362, ((3R,7aR)-7a-(((7-(8-ethyl-7-fluoro-3-hydroxynaphthalen-1-yl)-8-fluoro-4-((R)-3-hydroxy-3-methylpiperidin-1-yl)pyrido[4,3-d]pyrimidin-2-yl)oxy)methyl)hexahydro-1H-pyrrolizin-3-yl)methyl dimethylcarbamate] | 3 | 3 | 4 | 37 | 5130 | 73 | 313 | 629 | 404 | 763 | 113 |
| CCc1c(F)ccc2cc(O)cc(-c3ncc4c(N5CCCSCC5)nc(OC[C@@]56CCCN5C[C@H](F)C6)nc4c3F)c12 [Example 342, 5-ethyl-6-fluoro-4-(8-fluoro-2-(((2R,7aS)-2-fluorohexahydro-1H-pyrrolizin-7a-yl)methoxy)-4-(1,4-thiazepan-4-yl)pyrido[4,3-d]pyrimidin-7-yl)naphthalen-2-ol] | 3 | ≤ 2 | ≤ 2 | 4 | 2240 | 23 | 46 | 167 | 203 | 470 | 62 |
| CCc1c(F)ccc2cc(O)cc(-c3ncc4c(N5CCCC6(CCS(=O)(=O)C6)C5)nc(OC[C@@]56CCCN5C[C@H](F)C6)nc4c3F)c12 (stereo partly drawn) [Example 507, 7-(7-(8-ethyl-7-fluoro-3-hydroxynaphthalen-1-yl)-8-fluoro-2-(((2R,7aS)-2-fluorohexahydro-1H-pyrrolizin-7a-yl)methoxy)pyrido[4,3-d]pyrimidin-4-yl)-2-thia-7-azaspiro[4.5]decane 2,2-dioxide] | ≤ 2 | ≤ 2 | 4 | 7 | 1950 | 25 | 262 | 345 | 179 | 341 | 40 |
| CCc1c(F)ccc2cc(O)cc(-c3ncc4c(N5CCC[C@@](C)(O)C5)nc(OCC5(CN6CCOCC6)CC5)nc4c3F)c12 [Example 332, (R)-1-(7-(8-ethyl-7-fluoro-3-hydroxynaphthalen-1-yl)-8-fluoro-2-((1-(morpholinomethyl)cyclopropyl)methoxy)pyrido[4,3-d]pyrimidin-4-yl)-3-methylpiperidin-3-ol] | ≤ 2 | ≤ 2 | 3 | 2 | 710 | 6 | 31 | 13 | 22 | 48 | 3 |
| CCc1c(F)ccc2cc(O)cc(-c3ncc4c(N5CCCn6nc(C(=O)N(C)C)c(Cl)c6C5)nc(OC[C@@]56CCCN5C[C@H](F)C6)nc4c3F)c12 [Example 504, 3-chloro-5-(7-(8-ethyl-7-fluoro-3-hydroxynaphthalen-1-yl)-8-fluoro-2-(((2R,7aS)-2-fluorohexahydro-1H-pyrrolizin-7a-yl)methoxy)pyrido[4,3-d]pyrimidin-4-yl)-N,N-dimethyl-5,6,7,8-tetrahydro-4H-pyrazolo[1,5-a][1,4]diazepine-2-carboxamide] | ≤ 2 | ≤ 2 | ≤ 2 | 8 | 4830 | 4 | 6 | 11 | 53 | 81 | 2 |
| CCc1c(F)ccc2cc(O)cc(-c3ncc4c(N5CCCn6nc(C(=O)N7CCN(C)CC7)cc6C5)nc(OC[C@@]56CCCN5C[C@H](F)C6)nc4c3F)c12 [Example 477, (5-(7-(8-ethyl-7-fluoro-3-hydroxynaphthalen-1-yl)-8-fluoro-2-(((2R,7aS)-2-fluorotetrahydro-1H-pyrrolizin-7a(5H)-yl)methoxy)pyrido[4,3-d]pyrimidin-4-yl)-5,6,7,8-tetrahydro-4H-pyrazolo[1,5-a][1,4]diazepin-2-yl)(4-methylpiperazin-1-yl)methanone] | ≤ 2 | ≤ 2 | ≤ 2 | 67 | ≥ 10000 | 61 | 456 | 865 | 1570 | 2840 | 180 |
| CCc1c(F)ccc2cc(O)cc(-c3ncc4c(N5CCCn6nc(C(=O)N(C)CC)cc6C5)nc(OC[C@@]56CCCN5C[C@H](F)C6)nc4c3F)c12 [Example 358, N-ethyl-5-(7-(8-ethyl-7-fluoro-3-hydroxynaphthalen-1-yl)-8-fluoro-2-(((2R,7aS)-2-fluorotetrahydro-1H-pyrrolizin-7a(5H)-yl)methoxy)pyrido[4,3-d]pyrimidin-4-yl)-N-methyl-5,6,7,8-tetrahydro-4H-pyrazolo[1,5-a][1,4]diazepine-2-carboxamide] | ≤ 2 | ≤ 2 | ≤ 2 | 4 | 9770 | 12 | 15 | 44 | 131 | 167 | 3 |
